Laboratory results reported in publication PMC12063173, “Metabolic Profiling of a Mediterranean-Inspired (Poly)phenol-Rich Mixture in the Brain: Perfusion Effect and In Vitro Blood–Brain Barrier Transport Validation” (Journal of Agricultural and Food Chemistry, 2025).
Entries after “also recorded” stand apart in the source; their conditions may differ. Structures can show the parent of a compound that is named as a salt. Where two headings read alike, the source gives them in different places.

How the values were obtained:
[1] = Perfused brain (PB) kinetics of phenolic metabolites after oral capsule; type: in vivo, Sprague–Dawley rats; set-up: AUC0-t PB: concentration or dose not given beside the values; details: for Tmax: male, Sprague-Dawley, rat, 22 mg extract blend per capsule, one capsule per animal; for Tmax / AUC0-t PB / Cmax PB / Tmax PB / MRT0-t PB / T1/2 PB: perfused brain, oral capsule, 0-24 h, n = 3 per time point; for PB versus NPB comparison: perfused versus nonperfused brain
From the text: (§1) Statistical analyses were applied depending on the experimental context.

[2] = Nonperfused brain (NPB) kinetics of phenolic metabolites after oral capsule; type: in vivo, Sprague–Dawley rats; set-up: AUC0-t NPB: concentration or dose not given beside the values; details: nonperfused brain, oral capsule, 0-24 h, n = 3 per time point
From the text: as §1

[3] = Targeted metabolomics (UPLC-ESI-QTOF) identification of metabolites in plasma, PB and NPB; details: P plasma, PB perfused brain, NPB nonperfused brain, 1-24 h after oral capsule
Protocol: Adult male Sprague–Dawley rats weighing 250–300 g were purchased from the Animal Experimentation Service of the University of Murcia (Murcia, Spain). […] Based on the experimental design shown in Figure 1, one capsule was administered by gavage to each fasting animal. A total of 40 animals were used in the study. Thirty animals received a capsule containing a mixture of different Mediterranean food extracts, while ten animals received a capsule with microcrystalline cellulose and served as the control group. […] To minimize animal use in accordance with the 3Rs principle, two control animals were sacrificed at each time point (one PB and one NPB). These controls served to identify potential endogenous compounds or background signals not related to the extract administration. All animals were fasted overnight prior to gavage and euthanized with carbon dioxide.
Plasma samples were extracted with ACN:formic acid (98:2, v/v), centrifuged and evaporated in a speed vacuum concentrator (Savant SPD14 0DDA). The evaporated samples were resuspended in 100 μL MeOH and filtered through 0.22 μm regenerated cellulose filters (Minisart Sartorius, Madrid, Spain). Next, half of the animals at each time point were perfused with ice-cold phosphate-buffered saline, and the blood-free brain was dissected out immediately and stored at – 80 °C until analysis, as previously reported.[37],[48]
Approximately 400 mg of brain tissue (perfused or nonperfused) was weighed and extensively washed with cold PBS to avoid external blood contamination. After weighting, the samples were placed in 2 mL screw cap tubes. […] The evaporated samples were resuspended in 100 μL MeOH and filtered through 0.22 μm regenerated cellulose filters.
We performed a targeted metabolomic analysis using an ultrahigh-performance liquid chromatographic system (UPLC) coupled to a quadrupole-time-of-flight (QTOF) mass spectrometer. The phenolic compounds were separated using an Agilent Poroshell 120 column (100 mm × 3 mm, 2.7 μm) and a 5 μL injection volume. […] The flow rate was set constant at 0.4 mL/min. The spectra were acquired in the m/z range from 100 to 1100, in negative polarity mode and an acquisition rate of 1.5 spectra per second. Quantitative data were processed using the Mass HunterQualitative Analysis software (version B.08.00, Agilent). A target screening strategy was applied for the qualitative analysis of possible metabolites derived from the consumption of the Mediterranean blend. […] These compounds encompass derived metabolites conjugated (glucuronides, sulfates, and sulfoglucuronides, among others). The exact mass of the proposed compound was extracted using an extraction window of 0.01 m/z. Metabolite quantification was performed by integrating the peak areas of their extracted ion chromatograms (EICs). Compounds with available standards were quantified using calibration curves derived from the respective standards, while other metabolites were semiquantified based on their peak area values.

[4] = Plasma pharmacokinetics of phenolic metabolites after oral capsule of (poly)phenol-rich Mediterranean extract mixture; details: for AUC0-t plasma / MRT0-t plasma / T1/2 plasma / Tmax plasma: oral capsule, 0-24 h, n = 6 per time point
Protocol: Adult male Sprague–Dawley rats weighing 250–300 g were purchased from the Animal Experimentation Service of the University of Murcia (Murcia, Spain). […] Animals were maintained in a temperature-controlled environment with a 12 h light-dark cycle. […] Based on the experimental design shown in Figure 1, one capsule was administered by gavage to each fasting animal. A total of 40 animals were used in the study. Thirty animals received a capsule containing a mixture of different Mediterranean food extracts, while ten animals received a capsule with microcrystalline cellulose and served as the control group. At each time point (1, 3, 6, 8, and 24 h postadministration), six animals from the extract group were sacrificed, three with transcardial perfusion using saline (PB) and three without perfusion (NPB), to assess the distribution of extract-derived metabolites in plasma and brain. To minimize animal use in accordance with the 3Rs principle, two control animals were sacrificed at each time point (one PB and one NPB). […] All animals were fasted overnight prior to gavage and euthanized with carbon dioxide.
Blood samples collected by cardiac puncture in sodium heparin tubes at each time point after sacrifice were immediately centrifuged at 14,000 × g for 15 min at 4 °C, and the plasma was stored at −80 °C until their analysis. Plasma samples were extracted with ACN:formic acid (98:2, v/v), centrifuged and evaporated in a speed vacuum concentrator (Savant SPD14 0DDA). The evaporated samples were resuspended in 100 μL MeOH and filtered through 0.22 μm regenerated cellulose filters (Minisart Sartorius, Madrid, Spain).
We performed a targeted metabolomic analysis using an ultrahigh-performance liquid chromatographic system (UPLC) coupled to a quadrupole-time-of-flight (QTOF) mass spectrometer. The phenolic compounds were separated using an Agilent Poroshell 120 column (100 mm × 3 mm, 2.7 μm) and a 5 μL injection volume. The mobile phases used were 0.1% formic acid in water (A) and 0.1% formic acid in ACN (B), and the gradient was: 0–3 min, 5–15% B; 3–11 min, 15–30% B; 11–14 min, 30–50% B, 14–16 min, 50–90% B. Finally, the B content was decreased to the initial conditions (5%) in 1 min, and the column re-equilibrated for 4 min. The flow rate was set constant at 0.4 mL/min. The spectra were acquired in the m/z range from 100 to 1100, in negative polarity mode and an acquisition rate of 1.5 spectra per second.

[5] = male, Sprague-Dawley, rat, 22 mg extract blend per capsule, one capsule per animal
[6] = male, Sprague-Dawley, rat, po, 22 mg extract blend per capsule, one capsule per animal
[7] = read-out: Cmax plasma, oral capsule, 0-24 h, n = 6 per time point

Compound	AUC0-t PB [1] [pmol·h/g]	Cmax PB [1] [pmol/g tissue]	AUC0-t NPB [2] [pmol·h/g]	Cmax NPB [2] [pmol/g tissue]	occurrence [3]	AUC0-t plasma [4] [µM·h]	MRT0-t plasma [4] [h]	T1/2 plasma [4] [h]	Tmax plasma [4] [h]	Cmax [4, 7] [nM]	other results
O=C(O)c1ccc(O)cc1O [2,4-dihydroxybenzoic acid]	44 ± 17	4.3 ± 2.8	92 ± 31	10 ± 1.2	consistently detected in plasma and brain at all time points; also recorded: PB, NPB, P	–	–	–	–	–	Tmax [1]: 10 ± 12 h; PB versus NPB comparison [1]: significantly lower AUC values in PB compared to NPB; Tmax [2, 5]: 14 ± 15 h; MRT last ([2]; male, Sprague-Dawley, rat, 22 mg extract blend per capsule, one capsule per animal, read-out: MRT0-t NPB): 7.9 ± 1.1 h; half-life ([2]; male, Sprague-Dawley, rat, 22 mg extract blend per capsule, one capsule per animal, read-out: T1/2 NPB (converted)): 5.4 ± 3.6 h; concentration in plasma (approximate) [4]: around 500 nM; AUC(0-t) [4, 6]: 6.42 ± 1.92 µM·h; Cmax [4, 6]: 534 ± 211 nM; MRT last [4, 6]: 22 ± 11 h; Tmax [4, 6]: 12 ± 11 h; half-life [4, 6]: 14 ± 6 h
O=C(O)CCc1ccccc1O [3-(2-hydroxyphenyl) propionic acid]	1.8 ± 2.2	0.6 ± 0.5	1.1 ± 0.8	0.3 ± 0.04	PB, NPB, P	–	–	–	–	–	Tmax [1]: 9 ± 1.4 h; Tmax [2, 5]: 3.3 ± 4 h; occurrence ([3]; listed as 3-(2-hydroxyphenyl)propionic acid): consistently detected in plasma and brain at all time points; AUC(0-t) [4, 6]: 0.213 ± 0.053 µM·h; Cmax [4, 6]: 20 ± 11 nM; MRT last [4, 6]: 8.89 h; Tmax [4, 6]: 10 h; half-life [4, 6]: 8.26 h
COc1ccc(CCC(=O)O)cc1O [3-(3′-hydroxy-4′-methoxyphenyl)propionic acid)]	–	–	–	–	PB, NPB, P	–	–	–	–	–	PB versus NPB comparison [1]: higher concentrations in PB
O=C1CCC(Cc2ccc(O)c(OS(=O)(=O)O)c2)O1 (stereo not drawn) [5-(3,4-dihydroxyphenylvalerolactone) sulfate]	–	–	–	–	undetectable in both PB and NPB	0.113 ± 0.078	31 ± 44	19 ± 29	4.5 ± 1.7	12.1 ± 5	occurrence ([3]; listed as 5-(3,4-dihydroxyphenyl)valerolactone sulfate): exclusively detected in plasma
O=C(O)CCc1ccc(O)c(OS(=O)(=O)O)c1 [dihydrocaffeic acid 3-O-sulfate]	–	–	–	–	exclusively detected in plasma	0.077 ± 0.031	9.0 ± 2.5	6.0 ± 1.6	4.5 ± 1.7	9.6 ± 4.5	–
COc1cc(/C=C/C(=O)O)ccc1OS(=O)(=O)O [ferulic acid 4-O-sulfate]	3.0 ± 0.5	0.2 ± 0.1	4.8 ± 2.6	0.3 ± 0.2	PB, NPB, P	1.114 ± 0.459	14 ± 5.1	12 ± 6.3	4.2 ± 1.6	129 ± 107	Tmax PB [1]: 12 ± 11 h; PB versus NPB comparison [1]: significantly lower AUC values in PB compared to NPB; Tmax NPB [2]: 1.0 ± 0.0 h; plasma concentration relative to p-coumaric acid 4-O-sulfate [4]: approximately 3 fold
COc1ccc(C2CC(=O)c3c(O)cc(O)cc3O2)cc1O[C@@H]1O[C@H](C(=O)O)[C@@H](O)[C@H](O)[C@H]1O (stereo partly drawn) [hesperetin 3′-O-glucuronide]	–	–	–	–	no detectable levels in PB or NPB	0.011 ± 0.0013	23.48	14.80	5.7 ± 2.7	2.7 ± 0.9	–
COc1ccc([C@@H]2CC(=O)c3c(O)cc(O[C@@H]4O[C@H](C(=O)O)[C@@H](O)[C@H](O)[C@H]4O)cc3O2)cc1O [hesperetin 7-O-glucuronide]	–	–	–	–	no detectable levels in PB or NPB	0.036 ± 0.012	11 ± 5.8	7.4 ± 3.4	4.2 ± 2.8	4 ± 0.7	–
COc1cc(CCO)ccc1OS(=O)(=O)O [homovanillic alcohol sulfate]	–	–	–	–	PB, NPB, P	–	–	–	–	–	PB versus NPB comparison [1]: higher concentrations in PB
O=S(=O)(O)Oc1cc(CCO)ccc1O [hydroxytyrosol 3-O-sulfate]	16 ± 7.8	3.4 ± 3.1	60 ± 8.4	9.7 ± 5.7	PB, NPB, P	1.432 ± 0.648	4.3 ± 1.0	4.0 ± 2.3	1.4 ± 0.9	303 ± 45	MRT0-t PB [1]: 11 ± 5.9 h; T1/2 PB [1]: 7.3 ± 3.6 h; Tmax PB [1]: 2.7 ± 2.9 h; MRT0-t NPB [2]: 7.1 ± 3.1 h; T1/2 NPB [2]: 7.0 ± 0.7 h; Tmax NPB [2]: 3.0 ± 0.0 h; occurrence ([3]; listed as hydroxytyrosol 3-sulfate): identified in plasma, perfused brain (PB), and nonperfused brain (NPB)
O=S(=O)(O)Oc1ccc(CCO)cc1O [hydroxytyrosol 4′-O-sulfate]	52 ± 30	4.8 ± 1.5	84 ± 22	6.3 ± 2.6	PB, NPB, P	0.793 ± 0.403	3.4 ± 0.5	3.0 ± 0.6	1 ± 0	192 ± 76	MRT0-t PB [1]: 18 ± 14 h; T1/2 PB [1]: 12 ± 8.9 h; Tmax PB [1]: 2.3 ± 2.5 h; MRT0-t NPB [2]: 26 ± 22 h; T1/2 NPB [2]: 18 ± 14 h; Tmax NPB [2]: 2.3 ± 1.2 h; occurrence ([3]; listed as hydroxytyrosol 4′-sulfate): identified in plasma, perfused brain (PB), and nonperfused brain (NPB)
O=S(=O)(O)Oc1ccc(CCO)cc1 [tyrosol 4-O-sulfate]	0.9 ± 1.3	0.1 ± 0.08	31 ± 43	4.7 ± 6.1	PB, NPB, P	0.122 ± 0.116	7.15 ± 3.3	6.5 ± 1.8	1 ± 0	20 ± 30	Tmax PB [1]: 2.3 ± 3.2 h; MRT0-t NPB [2]: 7.4 ± 0.4 h; T1/2 NPB [2]: 4.5 ± 1.1 h; Tmax NPB [2]: 2.0 ± 1.4 h; occurrence ([3]; listed as tyrosol 4-sulfate): identified in plasma, perfused brain (PB), and nonperfused brain (NPB)
hydroxyphenyl propionic acid sulfate [hydroxyphenyl propionic acid sulfate peak-1]	–	–	–	–	PB, NPB, P	–	–	–	–	–	–
hydroxyphenylacetic acid sulfate	–	–	–	–	PB, NPB, P	–	–	–	–	–	–
